In article PMC5405074, “Receptor-Mediated Melanoma Targeting with Radiolabeled α-Melanocyte-Stimulating Hormone: Relevance of the Net Charge of the Ligand” (Frontiers in Endocrinology, 2017):
Like-named read-outs stand apart in the source and are kept apart here. Non-standard residues stand in square brackets, D forms with d. Residues, ends and D or L forms follow the SMILES beside them. *: point of attachment. DOTA = O=C(O)CN1CCN(CC(=O)O)CCN(CC(=O)*)CCN(CC(=O)O)CC1; pY = N[C@@H](Cc1ccc(OP(=O)(O)O)cc1)C(=O)O; Nle = CCCC[C@H](N)C(=O)O

Columns and labels:
[1] = Biodistribution of ^111In-labeled peptides in B16-F1 melanoma-bearing mice; format: in vivo, mouse (B6D2F1); conditions: female, iv, total radioactivity, ^111In-labeled peptide, 185 kBq i.v., mean ± SEM of three experiments, n = 5 animals each
Procedure: (§1) About 5 × 10^5 B16-F1 cells were implanted subcutaneously to female B6D2F1 mice (C57BL/6 × DBA/2F1 hybrids; breeding pairs obtained from IFFA-CREDO, France). Seven days later, 185 kBq of ^111In-labeled ligand in 200 µL PBS/0.1% BSA were injected intravenously into the lateral tail vein of each mouse. Control mice were injected with a mixture of the tracer and 50 µg α-MSH to determine the non-specific uptake of radioligand. The animals were sacrificed 4, 24, and 48 h postinjection, dissected, and the tissues of interest collected, rinsed of excess blood, and weighed. The radioactivity emitted by each organ was measured in a γ-counter to determine the tissue uptake as percentage of the injected dose (ID) per gram of tissue. The total of injected radioactivity per animal was determined by extrapolation from the counts of a standard collected from the injection solution for each animal. Urine samples were collected at 10, 15, and 20 min and 4 h after injection and kept frozen at −80°C until use. Urine (1 vol) was mixed with methanol (2 vol) to precipitate proteins, and the supernatant was analyzed by RP-HPLC/γ-detection, as described in Ref. ([12]).
(§2) Results are expressed as means ± SEM, unless otherwise stated. The statistical evaluation of data was performed using the one- or two-way ANOVA test. When significant overall effects were obtained by ANOVA, multiple comparisons were made with the Bonferroni correction. P < 0.05 was considered statistically significant. The area under the curve (AUC) was calculated with the GraphPad Prism 6 software for the indicated period of time, using the mean tissue uptake value at each time point.

[2] = system: B16-F1 tumor-bearing mice; experiment: as above; format: in vivo, mouse (B6D2F1)
Procedure: as §1, §2

MC1R (B16-F1 cells) = target: T1, MC1R (B16-F1 cells) (Mus musculus, UniProt Q01727); experiment: Competition binding assay with [^125I]-NDP-MSH, mouse B16-F1 melanoma cells
T1 construct: endogenous in cells; host or cells: mouse B16-F1 melanoma cells
T1 sequence (Q01727 whole entry): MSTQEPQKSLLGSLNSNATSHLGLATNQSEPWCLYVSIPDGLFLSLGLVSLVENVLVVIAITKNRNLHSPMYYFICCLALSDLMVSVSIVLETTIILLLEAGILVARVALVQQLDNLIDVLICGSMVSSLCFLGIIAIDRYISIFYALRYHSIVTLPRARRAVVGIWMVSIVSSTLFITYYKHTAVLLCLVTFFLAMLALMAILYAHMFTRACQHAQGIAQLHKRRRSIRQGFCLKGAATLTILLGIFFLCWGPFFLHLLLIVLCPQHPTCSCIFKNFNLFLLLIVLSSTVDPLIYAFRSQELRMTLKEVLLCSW
Procedure: (§3) Triplicates of 100-µL volumes of B16-F1 or HBL cell suspensions adjusted to 4 × 10^6/mL were incubated in 96-well U-bottom microplates (Falcon 3077). The binding medium consisted of MEM with Earle’s salts, 0.2% BSA, and 0.3 mM 1,10-phenanthroline. This binding medium was called mouse binding medium (MBM). Triplicates of competitor peptide solution (50 µL) yielding final concentrations ranging from 1 × 10^−6 to 1 × 10^−12 M were added. [^125I]NDP-MSH (50,000 cpm) in 50 µL was finally added to each well. The plates were incubated at 15°C for 3 h for B16-F1 cells and at 37°C for 2 h for HBL cells. The incubation was stopped by covering the plates with ice for 10 min. A cell harvester was used to collect cell-bound radioactivity on filters (Packard Unifilter-96 GF/B). The collected radioactivity was counted on a TopCount scintillation counter (Packard) after addition of 50 µL Microscint-20 scintillation cocktail (Perkin Elmer). The IC50 values were calculated with the Prism 6 software (GraphPad Software Inc., San Diego CA, USA).
(§4) The binding affinity of the peptides to MC1R was assessed by competition binding assays using [^125I]-NDP-MSH as radioligand and both murine B16-F1 and human HBL cells.

MC1R (HBL cells) = target: T2, MC1R (HBL cells) (Homo sapiens, UniProt Q01726); experiment: Competition binding assay with [^125I]-NDP-MSH, human HBL melanoma cells
T2 construct: endogenous in cells; host or cells: human HBL melanoma cell line
T2 sequence (Q01726 whole entry): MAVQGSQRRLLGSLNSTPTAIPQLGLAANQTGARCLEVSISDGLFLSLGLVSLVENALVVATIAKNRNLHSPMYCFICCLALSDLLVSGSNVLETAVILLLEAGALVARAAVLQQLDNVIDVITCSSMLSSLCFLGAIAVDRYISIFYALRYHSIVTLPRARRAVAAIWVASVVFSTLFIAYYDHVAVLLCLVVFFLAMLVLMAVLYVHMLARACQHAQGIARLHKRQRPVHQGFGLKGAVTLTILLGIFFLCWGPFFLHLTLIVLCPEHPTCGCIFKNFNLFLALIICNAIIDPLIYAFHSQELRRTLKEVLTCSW
Procedure: as §3, §4

[3] = B6D2F1 (C57BL/6 × DBA/2F1 hybrids), mouse, blood, read-out: Blood uptake
[4] = B6D2F1 (C57BL/6 × DBA/2F1 hybrids), mouse, muscle, read-out: Muscle uptake
[5] = B6D2F1 (C57BL/6 × DBA/2F1 hybrids), mouse, skin, read-out: Skin uptake
[6] = B6D2F1 (C57BL/6 × DBA/2F1 hybrids), mouse, tumor, read-out: Tumor uptake
[7] = B6D2F1, mouse, bone, read-out: Bone uptake
[8] = B6D2F1, mouse, heart, read-out: Heart uptake
[9] = B6D2F1, mouse, kidney, read-out: Kidney uptake
[10] = B6D2F1, mouse, liver, read-out: Liver uptake
[11] = B6D2F1, mouse, lung, read-out: Lung uptake
[12] = B6D2F1, mouse, pancreas, read-out: Pancreas uptake
[13] = B6D2F1, mouse, small intestines, read-out: Small intestines uptake
[14] = B6D2F1, mouse, spleen, read-out: Spleen uptake
[15] = B6D2F1, mouse, stomach, read-out: Stomach uptake
[16] = ^111In-labeled peptide, 185 kBq i.v., 4 h, mean ± SEM of three experiments, n = 5 animals each

Work on `CCCC[C@H](NC(=O)[C@H](Cc1ccc(OP(=O)(O)O)cc1)NC(=O)CNC(=O)CN1CCN(CC(=O)O)CCN(CC(=O)O)CCN(CC(=O)O)CC1)C(=O)N[C@@H](CC(=O)O)C(=O)N[C@@H](Cc1c[nH]cn1)C(=O)N[C@H](Cc1ccccc1)C(=O)N[C@@H](CCCNC(=N)N)C(=O)N[C@@H](Cc1c[nH]c2ccccc12)C(N)=O` [DOTA-Phospho-MSH2-9, DOTA-Gly-Tyr(P)-Nle-Asp-His-D-Phe-Arg-Trp-NH2] ({DOTA}-G[pY][Nle]DH[dF]RW-NH2) yielded a tissue uptake at 4 h [1, 3] of 0.02 %ID/g, a tissue uptake at 24 h [1, 3] of 0.01 %ID/g and a tissue uptake at 48 h ([1]; B6D2F1 (C57BL/6 × DBA/2F1 hybrids), mouse, bone, read-out: Bone uptake) of 0.06 ± 0.01 %ID/g. It also gave a tissue uptake at 4 h [1, 4] of 0.02 %ID/g, a tissue uptake at 24 h [1, 4] of 0.02 %ID/g and a tissue uptake at 48 h [1, 4] of 0.02 %ID/g. For the same compound, the tissue uptake at 4 h [1, 5] was 0.12 ± 0.03 %ID/g, the tissue uptake at 24 h [1, 5] was 0.07 ± 0.02 %ID/g and the tissue uptake at 48 h [1, 5] was 0.08 ± 0.02 %ID/g. It also gave a tissue uptake at 24 h [1, 6] of 2.92 ± 0.12 %ID/g, a tissue uptake at 48 h [1, 6] of 1.21 ± 0.18 %ID/g and a tissue uptake at 4 h [1, 7] of 0.08 ± 0.01 %ID/g. It also gave a tissue uptake at 24 h [1, 7] of 0.11 ± 0.02 %ID/g, a tissue uptake at 4 h [1, 8] of 0.04 %ID/g and a tissue uptake at 24 h [1, 8] of 0.03 %ID/g. For the same compound, the tissue uptake at 48 h [1, 8] was 0.03 %ID/g, the tissue uptake at 24 h [1, 9] was 1.88 ± 0.11 %ID/g and the tissue uptake at 48 h [1, 9] was 1.04 ± 0.07 %ID/g. The tissue uptake at 4 h [1, 10] was 0.2 ± 0.01 %ID/g, the tissue uptake at 24 h [1, 10] was 0.16 ± 0.02 %ID/g and the tissue uptake at 48 h [1, 10] was 0.12 ± 0.01 %ID/g. For the same compound, the tissue uptake at 4 h [1, 11] was 0.07 ± 0.02 %ID/g, the tissue uptake at 24 h [1, 11] was 0.04 %ID/g and the tissue uptake at 48 h [1, 11] was 0.03 %ID/g. For the same compound, the tissue uptake at 4 h [1, 12] was 0.05 ± 0.01 %ID/g, the tissue uptake at 24 h [1, 12] was 0.03 %ID/g and the tissue uptake at 48 h [1, 12] was 0.03 %ID/g. It also gave a tissue uptake at 4 h [1, 13] of 0.11 ± 0.03 %ID/g, a tissue uptake at 24 h [1, 13] of 0.06 %ID/g and a tissue uptake at 48 h [1, 13] of 0.06 %ID/g. It also gave a tissue uptake at 4 h [1, 14] of 0.11 ± 0.01 %ID/g, a tissue uptake at 24 h [1, 14] of 0.1 ± 0.01 %ID/g and a tissue uptake at 48 h [1, 14] of 0.09 ± 0.01 %ID/g. For the same compound, the tissue uptake at 4 h [1, 15] was 0.17 ± 0.08 %ID/g, the tissue uptake at 24 h [1, 15] was 0.16 ± 0.02 %ID/g and the tissue uptake at 48 h [1, 15] was 0.07 %ID/g. For the same compound, the “Tumor-to-kidney ratio compared with other peptides (in words)” value ([2]; AUC (4–48 h) or overall comparison) was “best tumor-to-kidney ratio of all linear MSH peptides so far investigated”, the Kidney uptake [2, 16] was 2.68 ± 0.18 %ID/g and the Tumor uptake [2, 16] was 7.33 ± 0.47 %ID/g. The IC50 (MC1R (B16-F1 cells)) was 2.32 ± 0.8 nM and the IC50 (MC1R (HBL cells)) was 3.03 ± 0.59 nM.
